The text below walks through data of ChEMBL document CHEMBL1137624, “Synthesis and characterization of pyrrolidine derivatives as potent agonists of the human melanocortin-4 receptor” (Bioorg Med Chem Lett, 2007).

For test [1], the target named is T1, Melanocortin receptor 4 (Homo sapiens, UniProt P32245). Description: Displacement of [125I]NDP-MSH from human MC4 receptor expressed in HEK293 cells. Format: cell-based.
The target of test [2] is T1, Melanocortin receptor 4. In words: Intrinsic activity at human MC4 receptor expressed in CHO cells assessed as cAMP accumulation relative to alpha-MSH. The class given is functional, cell-based. For orientation: Changes in cAMP serve as a functional read-out for many G protein-coupled receptors.

T1 sequence (P32245 whole entry): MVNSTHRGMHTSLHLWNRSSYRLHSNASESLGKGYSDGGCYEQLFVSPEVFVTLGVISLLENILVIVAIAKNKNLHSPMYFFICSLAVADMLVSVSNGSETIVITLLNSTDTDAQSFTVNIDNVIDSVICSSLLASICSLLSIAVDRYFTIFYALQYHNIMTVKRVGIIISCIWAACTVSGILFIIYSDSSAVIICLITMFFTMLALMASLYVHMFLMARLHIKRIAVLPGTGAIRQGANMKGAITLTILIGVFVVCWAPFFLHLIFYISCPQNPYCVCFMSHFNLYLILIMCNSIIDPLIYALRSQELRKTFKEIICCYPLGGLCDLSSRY

The Ki is a dissociation constant, usually derived from enzyme kinetics or from competition with a known ligand. A higher Ki goes with lower affinity. `CCCC(=O)N1C[C@@H](C(=O)N2CCN(c3c(F)cccc3[C@@H](N)C(C)C)CC2)[C@H](c2ccc(Cl)cc2)C1`: on Melanocortin receptor 4 [1], the affinity corresponds to a Ki of 260 nM.

Compound `CCC(=O)N1C[C@@H](C(=O)N2CCN(c3ccc(C)cc3[C@@H](N)C(C)C)CC2)[C@H](c2ccc(Cl)cc2)C1` had a Ki at Melanocortin receptor 4 [1] of 59 nM. Besides, the Intrinsic activity at Melanocortin receptor 4 [2] amounted to 31%.

At Melanocortin receptor 4 [1], `CC(C)[C@H](N)c1cccc(F)c1N1CCN(C(=O)[C@@H]2CN(C(=O)C3CC3)C[C@H]2c2ccc(Cl)cc2)CC1` yielded an inhibition constant Ki of 31 nM.

On Melanocortin receptor 4 [1], `CC(=O)N1C[C@@H](C(=O)N2CCN(c3ccc(C)cc3[C@@H](N)C(C)C)CC2)[C@H](c2ccc(Cl)cc2)C1` displayed an inhibition constant Ki of 110 nM. Besides, the Intrinsic activity on Melanocortin receptor 4 [2] was 35%.

Consider `CC(C)[C@H](N)c1cccc(F)c1N1CCN(C(=O)[C@@H]2CN(C3CCC3)C[C@H]2c2ccc(Cl)cc2)CC1`, for which the affinity at Melanocortin receptor 4 [1], expressed as Ki, was 32 nM.

On Melanocortin receptor 4 [1], `CC(C)[C@H](N)c1cccc(F)c1N1CCN(C(=O)[C@@H]2CN(Cc3ccccc3)C[C@H]2c2ccc(Cl)cc2)CC1` came in with a Ki of 340 nM. Also, the Intrinsic activity on Melanocortin receptor 4 [2] was 22%.

As to `CC(C)[C@H](N)c1cc(C(F)(F)F)ccc1N1CCN(C(=O)[C@H](C)Cc2ccc(Cl)cc2Cl)CC1`, the Ki at Melanocortin receptor 4 [1] came to 26 nM.

On to `CC(C)[C@H](N)c1cccc(F)c1N1CCN(C(=O)[C@@H]2CN(CCC(F)(F)F)C[C@H]2c2ccc(Cl)cc2)CC1`, for which, on Melanocortin receptor 4 [1], the Ki came to 205 nM.

The compound `CC(C)C[C@H](N)c1cc(C(F)(F)F)ccc1N1CCN(C(=O)[C@@H]2CN(C(=O)OC(C)(C)C)C[C@H]2c2ccc(Cl)cc2)CC1` gave a Ki at Melanocortin receptor 4 [1] of 390 nM. The Intrinsic activity on Melanocortin receptor 4 [2] turned out to be 32%.

Regarding `CC(C)[C@H](N)c1cccc(F)c1N1CCN(C(=O)[C@@H]2CN(C(=O)C(C)(C)C)C[C@H]2c2ccc(Cl)cc2)CC1`, the affinity on Melanocortin receptor 4 [1], expressed as Ki, was 540 nM. This counts as sub-micromolar.

Compound `CC(C)C(=O)N1C[C@@H](C(=O)N2CCN(c3c(F)cccc3[C@@H](N)C(C)C)CC2)[C@H](c2ccc(Cl)cc2)C1` gave a Ki at Melanocortin receptor 4 [1] of 250 nM. This Ki lies about 2.2-fold lower than the previous one.

Turning to `Cc1ccc(N2CCN(C(=O)[C@@H]3CN(C(=O)CCCCc4ccccc4)C[C@H]3c3ccc(Cl)cc3)CC2)c([C@@H](N)C(C)C)c1`, the inhibitory constant (Ki) on Melanocortin receptor 4 [1] stood at 65 nM. Further, the Intrinsic activity at Melanocortin receptor 4 [2] was determined as 0%.

Consider `CC(C)[C@H](N)c1cc(C(F)(F)F)ccc1N1CCN(C(=O)CCc2ccc(Cl)cc2Cl)CC1`, for which the Ki on Melanocortin receptor 4 [1] came to 74 nM. This counts as double-digit nanomolar.

For the compound `CCN1CCC(N2C[C@@H](C(=O)N3CCN(c4ccc(C)cc4[C@@H](N)C(C)C)CC3)[C@H](c3ccc(Cl)cc3)C2)CC1`, on Melanocortin receptor 4 [1], the affinity, expressed as Ki, was 18 nM. The Intrinsic activity at Melanocortin receptor 4 [2] is 3%.

`CC(C)[C@H](N)c1cccc(F)c1N1CCN(C(=O)C2CN(Cc3ccccc3)CC2c2ccc(Cl)cc2)CC1` (some centres not stated) returned a Ki at Melanocortin receptor 4 [1] of 94 nM. The Intrinsic activity on Melanocortin receptor 4 [2] stood at 19%.

For `CC(C)C[C@H](N)c1cc(C(F)(F)F)ccc1N1CCN(C(=O)[C@@H]2CNC[C@H]2c2ccc(Cl)cc2)CC1`, affinity at Melanocortin receptor 4 [1] was put at a Ki of 82 nM. Moreover, the Intrinsic activity on Melanocortin receptor 4 [2] amounted to 34%.

Regarding `CCCC(=O)N1C[C@@H](C(=O)N2CCN(c3ccc(C)cc3[C@@H](N)C(C)C)CC2)[C@H](c2ccc(Cl)cc2)C1`, the inhibitory constant (Ki) on Melanocortin receptor 4 [1] came out at 68 nM. Further, the Intrinsic activity at Melanocortin receptor 4 [2] is 14%.

On to `Cc1ccc(N2CCN(C(=O)[C@@H]3CN(C(=O)CCc4ccccc4)C[C@H]3c3ccc(Cl)cc3)CC2)c([C@@H](N)C(C)C)c1`, for which the affinity at Melanocortin receptor 4 [1], expressed as Ki, was 75 nM. Besides, on Melanocortin receptor 4 [2], the Intrinsic activity stood at 0%.

As for `CC(C)[C@H](N)c1cccc(F)c1N1CCN(C(=O)[C@@H]2CN(C(C)C)C[C@H]2c2ccc(Cl)cc2)CC1`, on Melanocortin receptor 4 [2], the Intrinsic activity worked out at 86%.

`COCC(COC)N1C[C@@H](C(=O)N2CCN(c3ccc(C)cc3[C@@H](N)C(C)C)CC2)[C@H](c2ccc(Cl)cc2)C1`: on Melanocortin receptor 4 [1], the affinity corresponds to a Ki of 200 nM. Besides, the Intrinsic activity on Melanocortin receptor 4 [2] was found to be 27%.

For `CC(C)C[C@H](N)c1cc(C(F)(F)F)ccc1N1CCN(C(=O)[C@@H]2CN(CCN)C[C@H]2c2ccc(Cl)cc2)CC1`, the Ki on Melanocortin receptor 4 [1] came out at 180 nM. The Intrinsic activity on Melanocortin receptor 4 [2] amounted to 37%.

`Cc1ccc(N2CCN(C(=O)[C@@H]3CN(Cc4ccccc4)C[C@H]3c3ccc(Cl)cc3)CC2)c([C@@H](N)C(C)C)c1` returned an inhibitory constant (Ki) on Melanocortin receptor 4 [1] of 36 nM. The Intrinsic activity at Melanocortin receptor 4 [2] was determined as 52%.

The compound `CC(C)[C@H](N)c1cccc(F)c1N1CCN(C(=O)[C@@H]2CN(C)C[C@H]2c2ccc(Cl)cc2)CC1` registered a Ki on Melanocortin receptor 4 [1] of 81 nM. This lies in the double-digit nanomolar range.

Take `CC(C)[C@H](N)c1cccc(F)c1N1CCN(C(=O)[C@@H]2CN(CCO)C[C@H]2c2ccc(Cl)cc2)CC1`: affinity on Melanocortin receptor 4 [1] was put at a Ki of 580 nM.

In turn, `CC(C)[C@H](N)c1cccc(F)c1N1CCN(C(=O)[C@@H]2CN(C(=O)c3ccccc3)C[C@H]2c2ccc(Cl)cc2)CC1` gave a Ki on Melanocortin receptor 4 [1] of 160 nM.

With `CC(C)C[C@H](N)c1cc(C(F)(F)F)ccc1N1CCN(C(=O)[C@@H]2CN(C(=O)CN)C[C@H]2c2ccc(Cl)cc2)CC1`, the affinity at Melanocortin receptor 4 [1], expressed as Ki, was 96 nM. Further, the Intrinsic activity at Melanocortin receptor 4 [2] worked out at 12%.

For the compound `Cc1ccc(N2CCN(C(=O)C3CN(C4CCOCC4)CC3c3ccc(Cl)cc3)CC2)c([C@@H](N)C(C)C)c1` (some centres not stated), the affinity on Melanocortin receptor 4 [1] corresponds to a Ki of 12 nM. The Intrinsic activity on Melanocortin receptor 4 [2] was determined as 36%.

`CC(C)[C@H](N)c1cccc(F)c1N1CCN(C(=O)[C@H]2CN(Cc3ccccc3)C[C@@H]2c2ccc(Cl)cc2)CC1` displayed a Ki on Melanocortin receptor 4 [1] of 98 nM. The Intrinsic activity at Melanocortin receptor 4 [2] was determined as 3%.

`CC(C)C[C@H](N)c1cc(C(F)(F)F)ccc1N1CCN(C(=O)[C@@H]2CN(C(=O)c3ccccc3)C[C@H]2c2ccc(Cl)cc2)CC1` had a Ki on Melanocortin receptor 4 [1] of 30 nM. Further, the Intrinsic activity on Melanocortin receptor 4 [2] is 3%.

On to `CC(C)[C@H](N)c1cccc(F)c1N1CCN(C(=O)[C@@H]2CN(C3CCCCC3)C[C@H]2c2ccc(Cl)cc2)CC1`, for which, on Melanocortin receptor 4 [1], the Ki was found to be 9.3 nM. Also, the Intrinsic activity on Melanocortin receptor 4 [2] was 49%.

Compound `CC(=O)N1C[C@@H](C(=O)N2CCN(c3c(F)cccc3[C@@H](N)C(C)C)CC2)[C@H](c2ccc(Cl)cc2)C1` had a Ki at Melanocortin receptor 4 [1] of 220 nM. This counts as sub-micromolar.

`Cc1ccc(N2CCN(C(=O)[C@@H]3CN(C4CCCCC4)C[C@H]3c3ccc(Cl)cc3)CC2)c([C@@H](N)C(C)C)c1`: affinity at Melanocortin receptor 4 [1] was put at a Ki of 6.6 nM. Moreover, on Melanocortin receptor 4 [2], the Intrinsic activity amounted to 21%.

Regarding `Cc1ccc(N2CCN(C(=O)[C@@H]3CN(C4CCN(C(C)C)CC4)C[C@H]3c3ccc(Cl)cc3)CC2)c([C@@H](N)C(C)C)c1`, the Ki at Melanocortin receptor 4 [1] was 18 nM. In addition, the Intrinsic activity on Melanocortin receptor 4 [2] amounted to 1%.

With `CC(C)C[C@H](N)c1cc(C(F)(F)F)ccc1N1CCN(C(=O)[C@@H]2CN(c3ccccc3)C[C@H]2c2ccc(Cl)cc2)CC1`, the inhibition constant Ki at Melanocortin receptor 4 [1] was 260 nM. Moreover, at Melanocortin receptor 4 [2], the Intrinsic activity amounted to 24%.

Consider `CC(C)[C@H](N)c1cccc(F)c1N1CCN(C(=O)[C@@H]2CN(C(=O)C3CCCCC3)C[C@H]2c2ccc(Cl)cc2)CC1`, for which, on Melanocortin receptor 4 [1], the affinity, expressed as Ki, was 350 nM.

Compound `Cc1ccc(N2CCN(C(=O)[C@@H]3CN(C(=O)CCCc4ccccc4)C[C@H]3c3ccc(Cl)cc3)CC2)c([C@@H](N)C(C)C)c1` registered an inhibition constant (Ki) at Melanocortin receptor 4 [1] of 100 nM. In addition, the Intrinsic activity at Melanocortin receptor 4 [2] is 0%.

On Melanocortin receptor 4 [1], `CC(C)[C@H](N)c1cc(C(F)(F)F)ccc1N1CCN(C(=O)[C@@H](Cc2ccc(Cl)cc2Cl)N2CCCC2=O)CC1` returned a Ki of 4.5 nM.

As to `Cc1ccc(N2CCN(C(=O)[C@@H]3CN(C(=O)OC(C)(C)C)C[C@H]3c3ccc(Cl)cc3)CC2)c([C@@H](N)C(C)C)c1`, at Melanocortin receptor 4 [1], the affinity corresponds to a Ki of 15 nM. The Intrinsic activity at Melanocortin receptor 4 [2] was found to be 0%.

For the compound `CC(C)[C@H](N)c1cc(C(F)(F)F)ccc1N1CCN(C(=O)[C@@H]2CN(Cc3ccccc3)C[C@H]2c2ccc(Cl)cc2Cl)CC1`, the affinity on Melanocortin receptor 4 [1], expressed as Ki, was 610 nM. This lies in the sub-micromolar range.
